Experimental data: patent US20060287360A1, “Novel compounds” (REPLIDYNE, INC., priority 2003, published 2006)

Tests used:
S. aureus MRS = target: T1, S. aureus MRS (Staphylococcus aureus, UniProt Q5HII6); experiment: Enzyme inhibition (S. aureus MRS), aminoacylation assay; format: biochemical
T1 construct: made in house
Experimental: 1. Enzyme Inhibition (S. aureus MRS)—Aminoacylation Assay
Compounds of the present invention may be assayed for their ability to inhibit the enzyme methionyl tRNA synthetase (MRS), using recombinant S. aureus MRS, as follows:
The reaction is started by adding 20 μl appropriately diluted pure enzyme (pre-incubated with inhibitor) to 25 μl reaction mix for 10 min at room temperature. The reaction is terminated by the addition of 100 μl 5% trichloroacetic acid, 10% glycerol. The TCA precipitate is harvested onto dry Unifilter GFC plates using a Packard Filtermate Cell Harvester. The filters are washed with 4×200 μl of 50% industrial methylated spirit, before drying. 30 μl of Microscint 20 is added to each well and plates are counted on a TopCount. (Packard 96 well counter).
Mixed E. coli MRE 600 tRNA and ATP were purchased from Boehringer-Mannheim, L-[^35 S] methionine from Amersham and other reagents from Sigma.
Pure recombinant S. aureus MRS (EP application number 97300317.1, SmithKline Beecham) was obtained using standard purification procedures. The enzyme is diluted in Dilution Buffer which consists of 10 mM Tris/Cl, 2 mM DTT pH 7.9.

E. faecalis = experiment: Antibacterial activity, standard MIC assay modified by inclusion of cyclodextrin; format: cell-based; details: Enterococcus faecalis; some strains of E. faecalis
Experimental: (§1) Compounds of the present invention were assayed for antibacterial activity against a range of pathogenic organisms (strains of S aureus, Spneumoniae, Efaecalis, H influenzae and M catarrhalis) in a standard MIC assay modified by the inclusion of cyclodextrin, to assist with solubility.

M Catarrhalis = experiment: as above; format: cell-based; details: some strains of M Catarrhalis
Experimental: as §1

S. aureus = experiment: as above; format: cell-based; details: Staphylococcus aureus; some strains of S. aureus
Experimental: as §1

S. pneumoniae = experiment: as above; format: cell-based; details: Streptococcus pneumoniae; some strains of S. pneumoniae
Experimental: as §1

H. influenzae = experiment: as above; format: cell-based
Experimental: as §1

T1 sequence (Q5HII6 whole entry): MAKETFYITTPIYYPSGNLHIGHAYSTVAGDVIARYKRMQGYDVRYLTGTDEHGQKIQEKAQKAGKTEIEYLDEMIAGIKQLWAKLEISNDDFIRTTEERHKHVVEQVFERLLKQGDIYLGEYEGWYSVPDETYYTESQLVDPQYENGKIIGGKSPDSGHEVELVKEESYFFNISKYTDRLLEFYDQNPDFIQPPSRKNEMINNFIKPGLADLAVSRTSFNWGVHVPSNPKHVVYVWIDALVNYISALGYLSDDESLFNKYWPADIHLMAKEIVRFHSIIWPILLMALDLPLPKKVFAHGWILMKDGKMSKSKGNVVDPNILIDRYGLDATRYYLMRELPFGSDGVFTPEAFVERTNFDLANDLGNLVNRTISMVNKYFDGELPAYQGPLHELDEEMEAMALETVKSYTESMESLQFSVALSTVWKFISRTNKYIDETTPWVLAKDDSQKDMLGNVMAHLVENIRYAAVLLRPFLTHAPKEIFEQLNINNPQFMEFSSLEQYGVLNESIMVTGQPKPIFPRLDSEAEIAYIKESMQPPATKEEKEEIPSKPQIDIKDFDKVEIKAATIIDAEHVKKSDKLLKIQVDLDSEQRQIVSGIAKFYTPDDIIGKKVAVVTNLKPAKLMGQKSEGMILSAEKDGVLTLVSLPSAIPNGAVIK

Row | Compound | IC50 (S. aureus MRS) [nM] | MIC (E. faecalis) [µg/mL] | MIC (M Catarrhalis) [µg/mL] | MIC (S. aureus) [µg/mL] | MIC (S. pneumoniae) [µg/mL] | antibacterial activity against H. influenzae (H. influenzae)
1 | COc1cc(CNCCCNc2nn3nccc3[nH]2)c2[nH]cc(Cl)c2c1.Cl.Cl [Example 1, 2-[3-(3-Chloro-5-methoxy-1H-indol-7-ylmethylamino)propylamino]-1H-pyrazolo[1,5-b][1,2,4]triazole dihydrochloride] | < 10 | < 32 | < 32 | < 32 | < 32 | 
2 | Cc1c(CNCCCNc2nn3nccc3[nH]2)sc(Br)c1Br.Cl.Cl [Example 2, 2-[3-(4,5-Dibromo-3-methylthien-2-ylmethylamino)propylamino]-1H-pyrazolo[1,5-b][1,2,4]triazole dihydrochloride] | < 10 |  |  |  |  | active
